Results taken from US20070122830A1, “Prohibitin-directed diagnostics and therapeutics for cancer and chemotherapeutic drug resistance” (Aurelium BioPharma Inc., priority 2005, published 2007).
Where two headings read alike, the source gives them in different places.

Columns and labels:
Format in all cases: cell-based, human
[1] = test system: SKOV3 Ovarian Cancer Cell Line; assay: MTT cytotoxicity assay, transfected SKOV3 cells plus chemotherapeutic drug; conditions: for IC50: Homo sapiens, SK-OV-3, SKOV3 cells, mock-transfected control, read-out: EC50, Control; for EC50 / fold change of EC50, Prohibitin vs Control: SKOV3 cells; for EC50: prohibitin (siRNA) transfected, read-out: EC50, Prohibitin; for fold change of EC50, Prohibitin vs Control: direction IS/IR in same cell (E54)
Description: (§1) For a typical siRNA transfection, 1 nmole of the annealed siRNA duplex was mixed with 1.4 ml of Opti-MEM reagent (Invitrogen). In another tube, […] of Oligofectamine reagent (Invitrogen, Carlsbad, Calif.) was mixed with […] of Opti-MEM. The two solutions were combined and mixed gently by inversion and incubated for 20 min. at RT. The resulting solution was added to the cultured cells drop by drop in a 10 cm dish (cells are approximately 40-50% confluent). The next day the transfected cells were trypsinized and seeded in 6 or 96-well plates and further incubated for the indicated amount of time (assay dependent) before further analysis.
(§2) RNA-transfected cells were seeded in triplicate into 96-well plates at 5×10^3 cells/well 48 hrs post-transfection. The cells were incubated for an additional 16 to 24 hrs before they were exposed to increasing concentrations of cytotoxic drugs. […] Appropriate dilutions were made in the respective media for each cell line. Following addition of drugs, incubation was continued for an additional 72 hrs. […] of MTT dye (5 mg/ml) were added into each well and the plate was further incubated at 37° C. for 4 hrs. The dye was solubilized with 10% Triton X-100, 0.01 N HCl and further incubated at 37° C. in the dark for 30 min. Cell viability was determined by measure of absorption at 570 nm in a Wallac multiwell plate reader (PerkinElmer, Inc., Boston, Mass.). The averages of triplicate wells were plotted using the Prism software (GraphPad Software, Inc., San Diego, Calif.).
Each table summarizes the results of an individual experiment performed in triplicate.

[2] = test system: MCF-7 Breast Cancer Cell Line; assay: MTT cytotoxicity assay, transfected MCF-7 cells plus chemotherapeutic drug; conditions: for sensitivity to drug of prohibitin siRNA treated cells: MCF-7, FIGS. 15A-15H; for EC50: prohibitin (siRNA) transfected, read-out: EC50, Prohibitin; for fold change of EC50, Prohibitin vs Control: direction IS/IR in same cell (E42)
Description: as §1
as §2, with “Cell survival was determined using the MTT cytotoxicity assay (see, e.g., Tokuyama et al. (2005) Anticancer Res. 25(1A): 17-22). RNA-transfected” for “RNA-transfected”, “drugs. Doxorubicin (adriamycin), cisplatinum, taxol, vinblastin, vincristin, and mitoxantrone were all purchased from Sigma Corp. (St. Louis, Mo.).” for “drugs.”
Cell survival was determined as described in Example 3 above.

[3] = test system: MDA Breast Cancer Cell Line; assay: MTT cytotoxicity assay, transfected MDA cells plus chemotherapeutic drug; conditions: for IC50: Homo sapiens, mock-transfected control, read-out: EC50, Control; for IC50 / EC50 / fold change of EC50, Prohibitin vs Control: MDA cells; for EC50: prohibitin (siRNA) transfected, read-out: EC50, Prohibitin
Description: as §1, §2

[4] = Table 3 experiment, direction IS/IR in same cell (E6)
[5] = Table 4 experiment, direction IS/IR in same cell (E12)
[6] = Table 7 experiment, direction IS/IR in same cell (E30)
[7] = Table 8 experiment, direction IS/IR in same cell (E36)

Row | SMILES | IC50 ([1]; Table 10 experiment) | IC50 ([1]; Table 11 experiment) | EC50 ([1]; Table 10 experiment) | EC50 ([1]; Table 11 experiment) | fold change of EC50, Prohibitin vs Control ([1]; Table 11 experiment) | sensitivity to drug of prohibitin siRNA treated cells [2] | EC50 ([2]; MCF-7 cells, Table 9) | fold change of EC50, Prohibitin vs Control ([2]; MCF-7 cells, Table 9) | IC50 ([3]; Table 3 experiment) | IC50 ([3]; Table 4 experiment) | IC50 ([3]; Table 7 experiment) | IC50 ([3]; Table 8 experiment) | EC50 ([3]; Table 3 experiment) | EC50 ([3]; Table 4 experiment) | EC50 ([3]; Table 7 experiment) | EC50 ([3]; Table 8 experiment) | fold change of EC50, Prohibitin vs Control [3, 4] | fold change of EC50, Prohibitin vs Control [3, 5] | fold change of EC50, Prohibitin vs Control [3, 7] | sensitivity to drug of prohibitin siRNA treated cells compared to mock controls ([3]; MDA, FIGS. 14A-14H) | further results
1 | O=C1c2c(O)ccc(O)c2C(=O)c2c(NCCNCCO)ccc(NCCNCCO)c21 [Mitoxantrone] | 0.801 nM | 0.147 nM | 0.358 nM | 0.118 nM | 1.2 x | more sensitive | 3.94 nM | 2.2 x | 0.11 nM | 0.0961 nM | 44.1 nM | 40.9 nM | 0.173 nM | 0.409 nM | 27.6 nM | 26.6 nM | 1.6 x | 4.2 x | 1.5 x | more sensitive | fold change of EC50, Prohibitin vs Control [3, 6]: 1.6 x; sensitivity to drug of prohibitin siRNA treated cells compared to mock controls ([3]; MDA, FIGS. 13A-13H): increased the sensitivity
2 | CC(=O)O[C@H]1C(=O)[C@@]2(C)[C@H]([C@H](OC(=O)c3ccccc3)[C@]3(O)C[C@H](OC(=O)[C@H](O)[C@@H](NC(=O)c4ccccc4)c4ccccc4)C(C)=C1C3(C)C)[C@]1(OC(C)=O)CO[C@@H]1C[C@@H]2O [Taxol] | 0.895 nM | 1.82 nM | 0.536 nM | 1.09 nM | 1.7 x | more sensitive | 2.62 nM | 30.0 x | 200 nM | 316 nM | 8.32 nM | 19.2 nM | 515 nM | 301 nM | 4.38 nM | 12.7 nM | 2.6 x |  | 1.5 x | more sensitive | increase in sensitivity to drug as compared to controls ([2]; MCF-7 cells treated with prohibitin siRNA, FIG. 15B): 30 fold; IC50 ([3]; Table 5 experiment): 5.11 nM; IC50 ([3]; Table 6 experiment): 10.8 nM; EC50 ([3]; Table 5 experiment): 6.55 nM; EC50 ([3]; Table 6 experiment): 6.19 nM; fold change of EC50, Prohibitin vs Control ([3]; Table 5 experiment, direction IS/IR in same cell (E18)): 1.3 x; fold change of EC50, Prohibitin vs Control ([3]; Table 6 experiment, direction IS/IR in same cell (E24)): 1.7 x; fold change of EC50, Prohibitin vs Control [3, 6]: 1.9 x; sensitivity to drug of prohibitin siRNA treated cells compared to mock controls ([3]; MDA, FIGS. 12A-12D): increased sensitivity; sensitivity to drug of prohibitin siRNA treated cells compared to mock controls ([3]; MDA, FIGS. 13A-13H): increased the sensitivity
3 | CC[C@]1(O)C[C@H]2CN(CCc3c([nH]c4ccccc34)[C@@](C(=O)OC)(c3cc4c(cc3OC)N(C=O)[C@H]3[C@@](O)(C(=O)OC)[C@H](OC(C)=O)[C@]5(CC)C=CCN6CC[C@]43[C@@H]65)C2)C1 [Vincristin] | 3.75 nM | 3.58 nM | 3.17 nM | 2.53 nM | 1.4 x |  | 350 nM | 2.1 x | 2840 nM | 1480 nM | 12.3 nM | 12.4 nM | 837 nM | 18600 nM |  | 4.3 nM | 3.4 x | 12.5 x | 2.9 x | more sensitive | change in sensitivity to the drug, Prohibitin vs Control ([2]; MCF-7 cells, Table 9): IR (IR: “increased in resistance” to the drug); sensitivity to drug of prohibitin siRNA treated cells compared to mock-treated cells ([3]; MDA, FIG. 9A-9H): increased sensitivity
